Target: T1, recombinant human mPGES-1 (Homo sapiens, UniProt O14684)
T1 construct: made in house; host or cells: Rosetta E. coli (microsomal/membrane fraction)
T1 sequence (O14684 1-152): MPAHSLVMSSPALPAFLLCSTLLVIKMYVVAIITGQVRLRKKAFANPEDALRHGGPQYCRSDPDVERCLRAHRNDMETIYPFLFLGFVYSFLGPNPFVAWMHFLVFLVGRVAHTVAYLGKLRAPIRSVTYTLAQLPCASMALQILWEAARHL
Assay: mPGES-1 inhibition test (microsomes, HTRF detection of PGE2)
Format: biochemical
Protocol: Microsomes from Rosetta E. coli bacteria expressing recombinant human mPGES-1 is dissolved in 0.1 M KPi pH 7.4 buffer containing 2.5 mM GSH. 50 μl of the enzyme is subsequently dispensed in a 384-well plate. 0.5 μl of the inhibitor dissolved in DMSO at is thereafter added to each well and incubated for 25 minutes at room temperature.
Subsequently, 2 μl of PGH2 dissolved in an appropriate solvent is added to each well and after one minute the acidified stop solution containing FeCl2 is added. 4 μl of the total volume is transferred to a separate plate and diluted 750-fold in two separate steps before HTRF detection of PGE2.
The HTRf detection is performed by the use of a commercially available kit from CisBio essentially according to the manufacturer's protocol. Briefly, 10 μl of the diluted sample is transferred to a white 384-well plate. 5 μl of d2 and 5 μl Eu3+-Cryptate labeled anti-PGE2 is added to each well containing samples by the use of a Multidrop. The plate is covered with a plastic self-adhesive film, centrifuged at 1200 rpm for 1 minute and subsequently stored at +4° C. over night.
After over night incubation the fluorescence is measured by the use of an appropriate microplate reader. The fluorescence of europium cryptate, and d2 are measured using the following excitation and emission wavelength, europium cryptate: λmax^ex=307 nm, λmax^em=620 nm and d2: λmax^ex=620 nm, λmax^em=665 nm), respectively. The extent of the specific FRET is measured as a ratio of the emission intensity at 665 nm vs. that at 620 nm. A standard curve using synthetic PGE2 is used to quantify the amount of PGE2 in unknown samples.

Question: `CN(C)c1cc(C(F)(F)F)cc(NC(=O)c2cc3[nH]c(Nc4c(Cl)cncc4Cl)nc3cn2)n1` [Example 739, 2-(3,5-Dichloro-pyridin-4-yl-amino)-N-(6-dimethylamino-4-trifluoromethyl-pyridin-2-yl)-1H-imidazo[4,5-c]pyridine-6-carboxamide] was tested. Which inhibition at 10 µM did it give?
Answer: 100%

Question: For `O=C(Nc1cc(C(F)(F)F)cc(C2CC2)n1)c1cc2[nH]c(Nc3c(Cl)cncc3Cl)nc2cn1` [Example 740, 2-(3,5-Dichloro-pyridin-4-yl-amino)-N-(6-cyclopropyl-4-trifluoromethyl-pyridin-2-yl)-1H-imidazo[4,5-c]pyridine-6-carboxamide], which inhibition at 10 µM is on record?
Answer: 100%

Reference: patent US8598190B2, “3H-imidazo [4, 5-C] pyridine-6-carboxamides as anti-inflammatory agents” (Boehringer Ingelheim International GmbH, priority 2008, dated 2013)
